The record followed here is US11655235B2, “Pyrrolidine and piperidine compounds” (YUHAN CORPORATION, priority 2019, dated 2023).

What all share (type): biochemical
The target of test [1] is T1, recombinant human DPP9 (Homo sapiens, UniProt Q86TI2).
T1 construct: purchased R&D Systems
Description: DPP9 inhibition, fluorogenic substrate H-Gly-Pro-AMC. As to conditions: recombinant human DPP9. Summed up: (§1)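 Inhibitors are titrated in an 8-point series into the enzyme's assay buffer (DMSO no more than 0.5%). Substrate cleavage at 25 °C is followed by fluorescence, excitation 380 nm and emission 460 nm. IC50 values come from a four-variable logistic model.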

For test [2], the target named is T2, recombinant human DPP7 (Homo sapiens, UniProt Q9UHL4).
T2 construct: purchased R&D Systems
The experiment in a line: DPP7 inhibition, fluorogenic substrate Lys-Pro-AMC. Particulars: recombinant human DPP7. Summed up:
as §1

For test [3], the target named is DPP4 (Homo sapiens, UniProt P27487). Description: DPP4 inhibition, fluorogenic substrate H-Gly-Pro-AMC. On the set-up: purchased R&D Systems. As to conditions: recombinant human DPP4.
DPP4, sequence (P27487 whole entry): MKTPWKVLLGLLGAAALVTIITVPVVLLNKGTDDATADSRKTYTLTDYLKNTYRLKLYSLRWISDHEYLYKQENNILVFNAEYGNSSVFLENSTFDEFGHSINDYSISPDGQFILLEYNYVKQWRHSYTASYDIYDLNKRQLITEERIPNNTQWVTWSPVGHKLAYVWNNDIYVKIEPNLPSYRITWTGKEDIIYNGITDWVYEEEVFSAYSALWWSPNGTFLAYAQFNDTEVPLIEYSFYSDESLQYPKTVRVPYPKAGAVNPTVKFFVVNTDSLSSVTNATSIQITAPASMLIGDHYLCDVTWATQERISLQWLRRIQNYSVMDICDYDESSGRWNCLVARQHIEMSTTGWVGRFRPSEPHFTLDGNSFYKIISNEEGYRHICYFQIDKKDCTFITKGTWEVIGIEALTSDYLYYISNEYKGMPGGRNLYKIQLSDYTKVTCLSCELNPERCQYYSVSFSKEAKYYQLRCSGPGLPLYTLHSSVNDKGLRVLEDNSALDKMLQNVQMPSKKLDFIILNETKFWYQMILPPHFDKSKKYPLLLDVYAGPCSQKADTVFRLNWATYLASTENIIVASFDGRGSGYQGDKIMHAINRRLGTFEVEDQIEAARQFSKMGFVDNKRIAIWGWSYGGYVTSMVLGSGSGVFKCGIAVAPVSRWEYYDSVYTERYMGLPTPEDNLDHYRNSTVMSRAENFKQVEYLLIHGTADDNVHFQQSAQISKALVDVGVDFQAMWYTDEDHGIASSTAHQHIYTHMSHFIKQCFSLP
Test [4] addresses T3, recombinant human PREP (Homo sapiens, UniProt P48147).
T3 construct: purchased R&D System
T3 sequence (P48147 1-710): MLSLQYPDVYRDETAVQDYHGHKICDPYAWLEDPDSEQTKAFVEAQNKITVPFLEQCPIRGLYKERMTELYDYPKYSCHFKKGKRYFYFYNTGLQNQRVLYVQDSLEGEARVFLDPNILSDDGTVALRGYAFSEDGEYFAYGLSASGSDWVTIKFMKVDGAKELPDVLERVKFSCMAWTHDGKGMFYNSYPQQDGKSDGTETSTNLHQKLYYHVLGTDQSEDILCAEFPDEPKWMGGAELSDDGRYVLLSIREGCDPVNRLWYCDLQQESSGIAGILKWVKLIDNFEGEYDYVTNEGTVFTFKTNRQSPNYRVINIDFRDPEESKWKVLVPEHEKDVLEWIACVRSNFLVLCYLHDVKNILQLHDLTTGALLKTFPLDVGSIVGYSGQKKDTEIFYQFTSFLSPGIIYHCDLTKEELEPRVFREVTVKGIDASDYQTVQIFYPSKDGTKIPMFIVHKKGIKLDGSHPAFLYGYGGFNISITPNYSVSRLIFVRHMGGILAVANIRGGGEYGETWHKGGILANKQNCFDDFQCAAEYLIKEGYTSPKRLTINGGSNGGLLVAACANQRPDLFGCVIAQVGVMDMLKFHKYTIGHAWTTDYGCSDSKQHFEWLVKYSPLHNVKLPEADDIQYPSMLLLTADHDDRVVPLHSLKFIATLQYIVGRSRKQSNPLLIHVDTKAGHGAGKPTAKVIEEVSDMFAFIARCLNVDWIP
Description: PREP inhibition, fluorogenic substrate Z-Gly-Pro-AMC. As to conditions: Inhibitory Activity (IC50, nM) PREP, recombinant human PREP. Summed up: as §1

The target in test [5] is T4, Recombinant human FAP (Homo sapiens, UniProt Q12884).
T4 construct: purchased R&D systems
T4 sequence (Q12884 1-760): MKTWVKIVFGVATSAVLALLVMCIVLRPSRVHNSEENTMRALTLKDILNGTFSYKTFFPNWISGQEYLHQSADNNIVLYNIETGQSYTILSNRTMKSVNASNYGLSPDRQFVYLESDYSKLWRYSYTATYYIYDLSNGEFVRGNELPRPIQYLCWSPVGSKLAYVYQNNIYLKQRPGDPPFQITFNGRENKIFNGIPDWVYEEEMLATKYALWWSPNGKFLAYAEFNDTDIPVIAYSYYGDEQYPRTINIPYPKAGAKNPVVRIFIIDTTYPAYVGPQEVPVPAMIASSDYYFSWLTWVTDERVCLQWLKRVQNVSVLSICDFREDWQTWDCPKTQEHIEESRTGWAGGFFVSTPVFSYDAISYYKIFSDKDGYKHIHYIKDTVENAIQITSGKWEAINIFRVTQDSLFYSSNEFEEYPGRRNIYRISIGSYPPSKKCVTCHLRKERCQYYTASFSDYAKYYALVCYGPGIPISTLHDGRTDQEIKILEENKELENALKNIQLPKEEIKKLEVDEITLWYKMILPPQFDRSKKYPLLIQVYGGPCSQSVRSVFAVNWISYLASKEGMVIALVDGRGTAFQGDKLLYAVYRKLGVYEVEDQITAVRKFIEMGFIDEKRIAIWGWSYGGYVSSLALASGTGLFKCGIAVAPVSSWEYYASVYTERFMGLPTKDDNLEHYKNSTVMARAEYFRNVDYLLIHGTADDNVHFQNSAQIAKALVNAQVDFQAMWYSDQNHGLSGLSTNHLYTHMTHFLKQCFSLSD
The experiment in a line: FAP FRET assay, FGF21-sequence FRET peptide substrate. Particulars: FRET peptide with human FGF21 sequence, 6 μM, 37° C. Summed up: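 FRET peptide bearing human FGF21 sequence (6 μM final) cleaved by 10 ng recombinant human FAP at 37° C in HEPES pH 7.2 buffer with NaCl, BSA and EDTA, DMSO up to 0.1%. Signal-rate decrease versus uninhibited control fitted to a four-variable logistic model for IC50.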

T1 sequence (Q86TI2 whole entry): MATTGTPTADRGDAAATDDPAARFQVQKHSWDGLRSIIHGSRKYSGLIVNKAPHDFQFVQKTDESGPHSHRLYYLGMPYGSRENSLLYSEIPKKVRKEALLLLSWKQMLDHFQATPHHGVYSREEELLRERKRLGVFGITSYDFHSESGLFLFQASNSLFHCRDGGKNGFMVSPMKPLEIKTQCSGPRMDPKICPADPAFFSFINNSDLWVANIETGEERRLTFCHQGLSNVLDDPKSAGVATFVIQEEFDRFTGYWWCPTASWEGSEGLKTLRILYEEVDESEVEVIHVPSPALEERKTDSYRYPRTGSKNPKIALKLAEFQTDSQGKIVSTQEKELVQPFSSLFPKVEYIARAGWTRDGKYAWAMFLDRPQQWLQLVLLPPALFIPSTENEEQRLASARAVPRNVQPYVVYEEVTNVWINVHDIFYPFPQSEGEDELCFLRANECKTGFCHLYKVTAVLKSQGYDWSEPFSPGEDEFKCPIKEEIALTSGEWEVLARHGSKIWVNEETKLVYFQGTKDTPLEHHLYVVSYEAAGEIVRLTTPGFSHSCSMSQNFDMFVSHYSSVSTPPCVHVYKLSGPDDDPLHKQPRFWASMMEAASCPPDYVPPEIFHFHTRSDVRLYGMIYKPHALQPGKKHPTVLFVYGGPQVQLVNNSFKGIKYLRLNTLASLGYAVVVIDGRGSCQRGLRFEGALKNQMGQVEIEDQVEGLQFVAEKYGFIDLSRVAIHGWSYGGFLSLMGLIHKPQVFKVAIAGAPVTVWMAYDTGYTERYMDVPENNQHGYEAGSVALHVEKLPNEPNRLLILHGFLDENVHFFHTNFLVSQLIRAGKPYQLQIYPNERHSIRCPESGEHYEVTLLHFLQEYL

For `N#C[C@@H]1C[C@H](F)CN1C(=O)CN1CC[C@@H](Nc2ccc3nc(C(F)(F)F)ccc3c2)C1` [Example 210, (2S,4S)-4-fluoro-1-[2-[(3R)-3-[[2-(trifluoromethyl)-6-quinolyl]amino]pyrrolidin-1-yl]acetyl]pyrrolidine-2-carbonitrile], the IC50 in test [1] stood at 1300 nM; in test [2], 281 nM; in test [3], 2700 nM; in test [4], 1480 nM; in test [5], 3.5 nM.
For `Cc1cnc2ccc(N[C@@H]3CCN(CC(=O)N4C[C@@H](F)C[C@H]4C#N)C3)cc2c1` [Example 211, (2S,4S)-4-fluoro-1-[2-[(3R)-3-[(3-methyl-6-quinolyl)amino]pyrrolidin-1-yl]acetyl]pyrrolidine-2-carbonitrile] the same measures were 657 nM, 369 nM, 1800 nM, 2740 nM and 5.2 nM.
For `COc1ccnc2ccc(N[C@@H]3CCN(CC(=O)N4C[C@@H](F)C[C@H]4C#N)C3)cc12` [Example 212, (2S,4S)-4-fluoro-1-[2-[(3R)-3-[(4-methoxy-6-quinolyl)amino]pyrrolidin-1-yl]acetyl]pyrrolidine-2-carbonitrile] the same measures were 1160 nM, 206 nM, 1960 nM, 5230 nM and 8 nM.
The like results for `Cc1cc(N[C@@H]2CCN(CC(=O)N3C[C@@H](F)C[C@H]3C#N)C2)cc2cccnc12` [Example 213, (2S,4S)-4-fluoro-1-[2-[(3R)-3-[(8-methyl-6-quinolyl)amino]pyrrolidin-1-yl]acetyl]pyrrolidine-2-carbonitrile] were, in that order, 1390 nM, 393 nM, 1740 nM, 3020 nM and 3.5 nM.
`N#C[C@@H]1C[C@H](F)CN1C(=O)CN1CC[C@@H](Nc2cc(F)c3ncccc3c2)C1` [Example 214, (2S,4S)-4-fluoro-1-[2-[(3R)-3-[(8-fluoro-6-quinolyl)amino]pyrrolidin-1-yl]acetyl]pyrrolidine-2-carbonitrile]: the IC50 in test [1] turned out to be 970 nM; in test [2], 764 nM; in test [3] it was 1290 nM; in test [4], 3030 nM; in test [5] it was 3.8 nM.
As to `N#C[C@@H]1C[C@H](F)CN1C(=O)CN1CC[C@@H](Nc2cc(Cl)c3ncccc3c2)C1` [Example 215, (2S,4S)-4-fluoro-1-[2-[(3R)-3-[(8-chloro-6-quinolyl)amino]pyrrolidin-1-yl]acetyl]pyrrolidine-2-carbonitrile], the IC50 in test [1] is 631 nM; in test [2], 544 nM; in test [3], 1160 nM; in test [4] it was 3150 nM; in test [5] it was 1.5 nM.
Regarding `N#C[C@@H]1C[C@H](F)CN1C(=O)CN1CC[C@@H](Nc2cc(C(F)(F)F)c3ncccc3c2)C1` [Example 216, (2S,4S)-4-fluoro-1-[2-[(3R)-3-[[8-(trifluoromethyl)-6-quinolyl]amino]pyrrolidin-1-yl]acetyl]pyrrolidine-2-carbonitrile], the IC50 in test [1] was 822 nM; in test [2] it was 399 nM; in test [3], 1350 nM; in test [4] it was 2560 nM; in test [5], 1.7 nM.
For `CCOc1ccc(N[C@H]2CCN(CC(=O)N3CCC[C@H]3C#N)C2)c2cccnc12` [Example 274, (2S)-1-[2-[(3S)-3-[(8-ethoxy-5-quinolyl)amino]pyrrolidin-1-yl]acetyl]pyrrolidine-2-carbonitrile] the same measures were 5550 nM, 960 nM, 11000 nM, 14900 nM and 4.4 nM.
For `CCOc1ccc(N[C@H]2CCN(CC(=O)N3C[C@@H](F)C[C@H]3C#N)C2)c2cccnc12` [Example 275, (2S,4S)-4-fluoro-1-[2-[(3S)-3-[(8-ethoxy-5-quinolyl)amino]pyrrolidin-1-yl]acetyl]pyrrolidine-2-carbonitrile] the same measures were 1590 nM, 90.4 nM, 1430 nM, 6120 nM and 1.7 nM.
For `N#C[C@@H]1C[C@H](F)CN1C(=O)CN1CC[C@H](Nc2ccc(O)c3ncccc23)C1` [Example 276, (2S,4S)-4-fluoro-1-[2-[(3S)-3-[(8-hydroxy-5-quinolyl)amino]pyrrolidin-1-yl]acetyl]pyrrolidine-2-carbonitrile] the same measures were 5330 nM, 3490 nM, 977 nM, 3030 nM and 14 nM.
As to `Cc1cc(N[C@H]2CCN(CC(=O)N3C[C@@H](F)C[C@H]3C#N)C2)cc2cccnc12` [Example 277, (2S,4S)-4-fluoro-1-[2-[(3S)-3-[(8-methyl-6-quinolyl)amino]pyrrolidin-1-yl]acetyl]pyrrolidine-2-carbonitrile], the IC50 in test [1] was 740 nM; in test [2], 193 nM; in test [3], 1040 nM; in test [4] it was 1230 nM; in test [5] it was 3 nM.
The like results for `N#C[C@@H]1C[C@H](F)CN1C(=O)CN1CC[C@H](Nc2cc(F)c3ncccc3c2)C1` [Example 278, (2S,4S)-4-fluoro-1-[2-[(3S)-3-[(8-fluoro-6-quinolyl)amino]pyrrolidin-1-yl]acetyl]pyrrolidine-2-carbonitrile] were, in that order, 593 nM, 615 nM, 610 nM, 1280 nM and 3.5 nM.
For the compound `N#C[C@@H]1C[C@H](F)CN1C(=O)CN1CC[C@H](Nc2cc(Cl)c3ncccc3c2)C1` [Example 279, (2S,4S)-4-fluoro-1-[2-[(3S)-3-[(8-chloro-6-quinolyl)amino]pyrrolidin-1-yl]acetyl]pyrrolidine-2-carbonitrile], the IC50 came to 614 nM in test [1]; 398 nM in test [2]; 254 nM in test [3]; 637 nM in test [4]; 1.5 nM in test [5].
Regarding `N#C[C@@H]1C[C@H](F)CN1C(=O)CN1CC[C@H](Nc2cc(C(F)(F)F)c3ncccc3c2)C1` [Example 280, (2S,4S)-4-fluoro-1-[2-[(3S)-3-[[8-(trifluoromethyl)-6-quinolyl]amino]pyrrolidin-1-yl]acetyl]pyrrolidine-2-carbonitrile], the IC50 in test [1] stood at 674 nM; in test [2] it was 184 nM; in test [3], 839 nM; in test [4] it was 970 nM; in test [5], 2.1 nM.
As to `CN(C)C(=O)c1ccc(N[C@H]2CCN(CC(=O)N3C[C@@H](F)C[C@H]3C#N)C2)c2cccnc12` [Example 282, N,N-dimethyl-5-[[(3S)-1-[2-oxo-2-[(2S,4S)-2-cyano-4-fluoro-pyrrolidin-1-yl]ethyl]pyrrolidin-3-yl]amino]quinoline-8-carboxamide], the IC50 is 4850 nM in test [1]; 241 nM in test [2]; 3470 nM in test [3]; 5060 nM in test [4]; 5.8 nM in test [5].
